Experimental data reported in ChEMBL document CHEMBL6096706, “Discovery of WDR5-MLL1 and HDAC Dual-Target Inhibitors for the Treatment of Acute Myeloid Leukemia” (J Med Chem, 2025).

How the values were obtained:
MV4-11 [1] = test: Antiproliferative activity against human MV4-11 cells assessed as growth inhibition at 0.1 uM measured after 72 hrs in presence of 0.5 uM of vorinostat by CellTiterGlo assay; assay type: functional; details: read-out: GI
MV4-11 [2] = test: Induction of apoptosis in human MV4-11 cells assessed as early apoptotic cells at 200 nM incubated for 72 hrs by Annexin V/PI staining based flow cytometry analysis (reference value: 0.76%); assay type: functional
MV4-11 [3] = test: Induction of apoptosis in human MV4-11 cells assessed as early apoptotic cells at 200 nmol/L incubated for 72 hrs by Annexin V/PI staining based flow cytometry analysis (reference value: 4.17 %); assay type: functional
MV4-11 [4] = test: Induction of apoptosis in human MV4-11 cells assessed as necrotic cells at 200 nM incubated for 72 hrs by Annexin V/PI staining based flow cytometry analysis (reference value: 2.61%); assay type: functional
MV4-11 [5] = test: Antiproliferative activity against human MV4-11 cells assessed as growth inhibition at 0.5 uM measured after 72 hrs in presence of 1 uM of vorinostat by CellTiterGlo assay; assay type: functional; details: read-out: GI
MV4-11 [6] = test: Antiproliferative activity against human MV4-11 cells assessed as growth inhibition at 1 uM measured after 72 hrs by CellTiterGlo assay; assay type: functional; details: read-out: GI
MV4-11 [7] = test: Antiproliferative activity against human MV4-11 cells assessed as growth inhibition at 0.5 uM measured after 72 hrs in presence of 0.05 uM of vorinostat by CellTiterGlo assay; assay type: functional; details: read-out: GI
MV4-11 [8] = test: Antiproliferative activity against human MV4-11 cells assessed as growth inhibition at 0.5 uM measured after 72 hrs in presence of 0.5 uM of vorinostat by CellTiterGlo assay; assay type: functional; details: read-out: GI
MV4-11 [9] = test: Induction of apoptosis in human MV4-11 cells assessed as late apoptotic cells at 200 nmol/L incubated for 72 hrs by Annexin V/PI staining based flow cytometry analysis (reference value: 5.14%); assay type: functional
MV4-11 [10] = test: Antiproliferative activity against human MV4-11 cells assessed as growth inhibition at 0.05 uM measured after 72 hrs by CellTiterGlo assay; assay type: functional; details: read-out: GI
MV4-11 [11] = test: Antiproliferative activity against human MV4-11 cells assessed as growth inhibition at 2 uM measured after 72 hrs in presence of 0.2 uM of vorinostat by CellTiterGlo assay; assay type: functional; details: read-out: GI
MV4-11 [12] = test: Induction of apoptosis in human MV4-11 cells assessed as necrotic cells at 200 nmol/L incubated for 72 hrs by Annexin V/PI staining based flow cytometry analysis (reference value: 0.46%); assay type: functional
MV4-11 [13] = test: Induction of apoptosis in human MV4-11 cells assessed as viable cells at 200 nmol/L incubated for 72 hrs by Annexin V/PI staining based flow cytometry analysis (reference value: 90.23%); assay type: functional; details: Homo sapiens, MV4-11, read-out: Activity
MV4-11 [14] = test: Antiproliferative activity against human MV4-11 cells assessed as growth inhibition at 0.05 uM measured after 72 hrs in presence of 0.05 uM of vorinostat by CellTiterGlo assay; assay type: functional; details: read-out: GI
[15] = Toxicity in mouse implanted in human MV4-11 cells assessed as kidney damage at 10 to 30 mg/kg, ip administered daily for 17 days by H and E staining based analysis; assay type: organism-based; details: in vivo, 408 h, dose 10-30 mg/kg, time 17 day
MV4-11 [16] = test: Induction of apoptosis in human MV4-11 cells assessed as viable cells at 100 nmol/L incubated for 72 hrs by Annexin V/PI staining based flow cytometry analysis (reference value: 90.23%); assay type: functional; details: read-out: Activity
[17] = Toxicity in mouse implanted in human MV4-11 cells assessed as heart damage at 10 to 30 mg/kg, ip administered daily for 17 days by H and E staining based analysis; assay type: organism-based; details: in vivo, 408 h, dose 10-30 mg/kg, time 17 day
[18] = biological target: T1, Protein deacetylase HDAC6 (Homo sapiens, UniProt Q9UBN7); test: Inhibition of HDAC6 (unknown origin) by fluorescence based assay
T1 sequence (Q9UBN7 whole entry): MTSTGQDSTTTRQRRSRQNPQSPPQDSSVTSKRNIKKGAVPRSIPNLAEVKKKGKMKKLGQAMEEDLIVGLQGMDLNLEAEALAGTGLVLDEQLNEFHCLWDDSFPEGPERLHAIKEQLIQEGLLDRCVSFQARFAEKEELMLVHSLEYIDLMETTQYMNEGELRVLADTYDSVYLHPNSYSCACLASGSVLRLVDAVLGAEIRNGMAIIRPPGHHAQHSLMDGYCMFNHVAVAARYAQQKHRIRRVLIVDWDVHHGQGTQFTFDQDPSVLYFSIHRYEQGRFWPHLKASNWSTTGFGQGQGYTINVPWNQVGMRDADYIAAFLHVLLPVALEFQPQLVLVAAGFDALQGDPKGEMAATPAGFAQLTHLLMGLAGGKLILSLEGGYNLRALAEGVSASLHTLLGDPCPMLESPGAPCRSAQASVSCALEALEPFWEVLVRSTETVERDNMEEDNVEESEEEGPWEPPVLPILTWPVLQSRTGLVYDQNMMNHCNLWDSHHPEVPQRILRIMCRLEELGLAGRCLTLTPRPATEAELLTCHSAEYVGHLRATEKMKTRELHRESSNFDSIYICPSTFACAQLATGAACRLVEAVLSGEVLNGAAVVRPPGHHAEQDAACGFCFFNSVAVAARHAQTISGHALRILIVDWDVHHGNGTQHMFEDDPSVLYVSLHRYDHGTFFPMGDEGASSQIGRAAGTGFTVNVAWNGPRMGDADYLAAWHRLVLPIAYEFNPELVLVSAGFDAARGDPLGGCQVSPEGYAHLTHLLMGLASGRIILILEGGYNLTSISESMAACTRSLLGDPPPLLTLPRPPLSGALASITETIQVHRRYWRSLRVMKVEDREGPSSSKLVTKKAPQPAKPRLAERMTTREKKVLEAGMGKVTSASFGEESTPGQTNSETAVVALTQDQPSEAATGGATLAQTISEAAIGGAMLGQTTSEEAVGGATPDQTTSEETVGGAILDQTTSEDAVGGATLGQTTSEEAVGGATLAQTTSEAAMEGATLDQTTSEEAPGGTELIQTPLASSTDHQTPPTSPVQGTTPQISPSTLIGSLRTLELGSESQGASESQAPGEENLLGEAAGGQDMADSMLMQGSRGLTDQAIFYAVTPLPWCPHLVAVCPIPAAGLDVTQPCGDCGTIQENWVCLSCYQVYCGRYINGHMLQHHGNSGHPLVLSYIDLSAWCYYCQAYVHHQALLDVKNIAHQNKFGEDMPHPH

[19] = biological target: Histone-lysine N-methyltransferase 2A/WDR5 (Homo sapiens, UniProt P61964); test: Inhibition of MLL1/WDR5 (unknown origin) protein-protein interaction incubated for 2 hrs by FP analysis; assay type: protein assay
MV4-11 [20] = test: Induction of apoptosis in human MV4-11 cells assessed as early apoptotic cells at 100 nmol/L incubated for 72 hrs by Annexin V/PI staining based flow cytometry analysis (reference value: 4.17 %); assay type: functional
MV4-11 [21] = test: Antitumor activity against human MV4-11 cells xenografted in mouse assessed as tumor growth inhibition at 20 mg/kg, ip administered daily for 17 days; assay type: functional; details: MV4-11, 408 h, time 17 day, read-out: TGI
MV4-11 [22] = test: Induction of apoptosis in human MV4-11 cells assessed as late apoptotic cells at 50 nmol/L incubated for 72 hrs by Annexin V/PI staining based flow cytometry analysis (reference value: 5.14%); assay type: functional

## Cc1c(F)c(N)cc(C(=O)Nc2cc(-c3ccc(C(=O)N4CCOCC4)cc3)ccc2N2CCN(C)CC2)c1Cl
MV4-11 [1]
  inhibition of growth at 0.1 µM: 73.6%
MV4-11 [2]
  Activity: 7.03%
MV4-11 [3]
  Activity: 7.36%
MV4-11 [4]
  Activity: 1.62%
MV4-11 [5]
  inhibition of growth at 0.5 µM: 91.1%
MV4-11 [6]
  inhibition of growth at 1 µM: 40.7%
MV4-11 [7]
  inhibition of growth at 0.5 µM: 50.1%
MV4-11 [8]
  inhibition of growth at 0.5 µM: 73.2%
MV4-11 [9]
  Activity: 3.51%
MV4-11 [10]
  inhibition of growth at 0.05 µM: 17.5%
MV4-11 [11]
  inhibition of growth at 2 µM: 72.3%
MV4-11 [12]
  Activity: 0.58%
MV4-11 [13]
  viability at 0.2 µM: 88.5%
MV4-11 [14]
  inhibition of growth at 0.05 µM: 30.1%

## Cc1c(F)c(N)cc(C(=O)Nc2cc(-c3ccc(C(=O)NCc4ccc(/C=C/C(=O)NO)cc4)cc3)ccc2N2CCN(C)CC2)c1Cl
[15]
  Activity: Non-toxic
MV4-11 [16]
  viability at 0.1 µM: 71.5%
MV4-11 [3]
  Activity: 53.31%
[17]
  Activity: Non-toxic
[18]
  IC50: 46 nM
[19]
  IC50: 42 nM
MV4-11 [9]
  Activity: 6.01%
MV4-11 [20]
  Activity: 19.42%
MV4-11 [12]
  Activity: 0.41%
MV4-11 [13]
  viability at 0.2 µM: 40.3%
MV4-11 [21]
  inhibition in vivo at 20 mg/kg: 69%
MV4-11 [22]
  Activity: 10.86%
